In experiment [1] the target is T1, HCV NS3 protease, genotype 1a (Hepatitis C virus genotype 1a, UniProt P26664).
T1 construct: NS3 protease catalytic domain (amino acids 1 to 192); MGAQH expression leader (5 aa), or alternatively the 15 aa His tag […]; made in house; host or cells: E. coli BL21 (DE3)
Type of experiment: biochemical. The following applies: P6-P3′ amide substrate. The protocol: Endpoint HPLC based HCV protease assay: HCV protease (5 nM) was incubated in 50 mM Tris pH 7.5, 0.1% maltoside, 5 mM DTT and appropriate amounts of glycerol, NS4A peptide, and substrate. Routine assays were 100 μl in volume containing 15% or 50% glycerol, 5.0 μM NS4A peptide and 5.0 μM substrate. Reactions were run at room temperature (˜22° C.) and quenched by the addition of 4 μl of 10% TFA before 10% of the substrate was consumed. Incubation times were 20 minutes for the ester substrate (Peptide Substrate A) and 80 minutes for the P6-P7′ amide substrate (Peptide Substrate B). […] Incubation times were 90 min. Samples, 50 μl, were injected onto an Hewlett Packard 1090 Liquid Chromatograph containing a Dynamax-60A C18 column. The column was eluted with a linear gradient from 10% acetonitrile to 45% acetonitrile in water. All solvents contained 0.1% TFA. A flow rate of 1 ml/min was used. […] The product peaks were detected by fluorescence excitation at 350 nm and emission at 500 nm.
Comparison of the effects of Q9692 on the hydrolysis of a P6-P3′ ester substrate (FIG. 2A) and a P6-P7′ substrate (FIG. 2B) and P6-P3′ amide substrate (FIG. 2C) were determined. […] Hydrolysis products were quantitated by measuring fluorescent peak areas following HPLC and detection by excitation at 350 nm and measuring emission at 500 nm. […]

Experiment [2] deals with T2, HCV protease 2A (Hepatitis C virus genotype 2a, UniProt P26660).
T2 construct: the catalytic domains of types 1b, 1J and 2a have also been examined
Briefly: HCV protease type 2a, 9-mer substrate. Format: biochemical. The source says: (§1) It is understood that other forms of HCV protease may be used in an assay for the determination of inhibitors. The present invention has disclosed the 1A form of HCV protease, however, the catalytic domains of types 1b, 1J and 2a have also been examined, as well as, the full-length version of form 1b. Evidence for the exosite exists in each case. Activation by Q9692 follows the trend of activation by NS4a. Forms of the enzyme that are more sensitive to NS4a display greater stimulation by Q9692 than forms that are less sensitive. In rank order sensitivity is 1J, 1B, 1A, and 2A. The catalytic activity of 2A toward the 9-mer substrate is enhanced by only 1.5-fold at 4 μM Q9692 and becomes inhibited by Q9692 at concentrations greater than 20 μM. […] Use of alternative forms of the HCV protease is relevent to development of an inexpensive and easy continous assay.

In experiment [3] the target is T2, HCV protease 2A. In words: HCV protease type 2a, 13-mer substrate. Format: biochemical.
Description: as §1

The target of experiment [4] is T1, HCV NS3 protease, genotype 1a. Format: biochemical. The following applies: P6-P3′ ester substrate, NS4a=0, relative to controls without Q9692.
Experiment [5] addresses T3, HCV protease (Hepatitis C virus genotype 1b, UniProt P26663). As to conditions: read-out: inhibitor of HCV protease (potency); 13 residue substrate spanning P6-P7′; cited from earlier work.
Experiment [6] has as its target T3, HCV protease. As to conditions: substrate Ac-[…](Edans)—NH2; cited from earlier work.

Where two headings read alike, the source gives them in different places. Where a SMILES comes first, the peptide text is derived from it. [ ]: non-standard residue; d: D form. Dip = N[C@H](C(=O)O)C(c1ccccc1)c1ccccc1; Cha = N[C@@H](CC1CCCCC1)C(=O)O

Data on 1 compound can be found in US20020102533A1, “Hepatitis C protease exosite for inhibit or design” (priority 2000, published 2002).

On to `CC(=O)N[C@@H](CC(=O)O)C(=O)N[C@@H](CCC(=O)O)C(=O)N[C@H](C(=O)N[C@@H](CCC(=O)O)C(=O)N[C@@H](CC1CCCCC1)C(=O)N[C@@H](CS)C(=O)O)C(c1ccccc1)c1ccccc1` [Q9692, Ac-Asp-Glu-Dpa-Glu-Cha-Cys—OH] (Ac-DE[Dip]E[Cha]C-OH), for which the inhibition pattern entry in experiment [1] is “mixed inhibition”. Further, the “concentrations at which enzyme becomes inhibited” value in experiment [2] is recorded as “greater than 20 μM”. Besides, the “enhancement of catalytic activity” value in experiment [2] (4 μM Q9692) amounted to 1.5 fold. Also, the Ki in experiment [3] is roughly 250 nM; in experiment [5], 50 nM; in experiment [6], 50 nM. For the same compound, in experiment [4], the “relative activity of the protease” value is reported as roughly 1.
